US9487489B2, “Halogen-substituted pyrazole derivatives as pest-control agents” (BAYER CROPSCIENCE AKTIENGESELLSCHAFT, priority 2013, dated 2016)

Legend:
[1] = tested on: L1 larvae of the Australian sheep blowfly (Lucilia cuprina); test: Lucilia cuprina test (LUCICU); format: in vivo; conditions: application rate 100 ppm; after 2 days
Procedure, shortened: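 About 20 L1 larvae placed in a vessel with minced horsemeat plus compound (DMSO concentrate diluted with water to the desired concentration). Kill in % scored after 2 days, 100% meaning all larvae dead.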

[2] = tested on: greenhouse red spider mite (Tetranychus urticae); test: Tetranychus urticae spray test, OP-resistant (TETRUR); format: in vivo; conditions: bean leaf discs, after 6 days
Procedure, shortened: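 Bean leaf discs carrying all stages of OP-resistant Tetranychus urticae were sprayed with compound formulated in acetone/dimethylformamide and diluted in water with 1000 ppm alkylaryl polyglycol ether emulsifier. Mortality (% efficacy, 100% = all mites killed) scored after 6 days.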

[3] = tested on: caterpillars of the armyworm (Spodoptera frugiperda); test: Spodoptera frugiperda spray test (SPODFR); format: in vivo; conditions: maize leaf discs, after 7 days
Procedure, shortened: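 Maize leaf discs sprayed with compound in acetone/DMF with alkylaryl polyglycol ether emulsifier (1000 ppm) in water, dried, then infested with armyworm caterpillars. Mortality (%) scored after 7 days; 100% = all caterpillars killed, 0% = none killed.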

[4] = tested on: Tick nymphs (Amblyomma hebraeum); test: Amblyomma hebraeum test (AMBYHE), tick nymphs immersed; format: in vivo; conditions: application rate 100 ppm; immersed one minute; after 42 days
[5] = tested on: engorged adult female cattle ticks (Boophilus microplus); test: Boophilus microplus injection test (BOOPMI Inj); format: in vivo; conditions: application rate 20 μg/animal; injection into abdomen; assessed after 7 days
Procedure, shortened: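 DMSO solution of compound (1 μl) injected into the abdomen of 5 engorged adult female ticks, which are then held in a climate-controlled room. After 7 days, efficacy is scored from laying of fertile eggs, with unclear eggs kept until larval hatch (~42 days); 100% means no fertile eggs, 0% all fertile.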

[6] = tested on: adult castor bean ticks (Ixodes ricinus); test: Ixodes ricinus in vitro contact test with adult castor bean ticks (T3); conditions: after 48 h
Procedure, shortened: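 Test compound was dissolved in acetone p.a. (9 mg in 1 ml) and diluted with acetone; 250 μl were spread evenly over the inner walls and floor of 25 ml test tubes by rocking on an orbital shaker (2 h, 30 rpm). Once the solvent evaporated, 5-10 adult Ixodes ricinus ticks were added, tubes closed with perforated lids and kept horizontally in darkness at 22° C. and 90% humidity. After 48 h, ticks were placed on a 45-50° C. hotplate for up to 5 min; those motionless or unable to climb away were scored dead or moribund.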

[7] = tested on: cattle ticks (Boophilus microplus) Parkhurst strain, SP-resistant; test: Boophilus microplus dip test (BOOPMI Dip); format: in vivo; conditions: application rate 100 ppm, assessed after 7 days
Procedure, shortened: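 Adult engorged female SP-resistant Parkhurst ticks (8–10) were fully immersed in compound diluted in water from a DMSO solution, then kept in a climate-controlled room. After 7 days, fertile egg-laying was scored, with larval hatching checked at about 42 days; 100% efficacy means no fertile eggs.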

[8] = tested on: adult houseflies (Musca domestica); test: Musca domestica test (MUSCDO); format: in vivo; conditions: application rate 100 ppm; after 2 days
Procedure, shortened: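 Compound dissolved in DMSO and diluted with water to the test concentration, applied with sugar solution on a sponge; 10 adult houseflies per vessel. Mortality scored after 2 days as % kill (100% all dead, 0% none).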

[9] = tested on: larvae of the mustard beetle (Phaedon cochleariae); test: Phaedon cochleariae spray test (PHAECO); format: in vivo; conditions: Chinese cabbage leaf discs, after 7 days
Procedure, shortened: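 Compound dissolved in acetone/dimethylformamide with alkylaryl polyglycol ether emulsifier, made up in water containing 1000 ppm emulsifier, then diluted to test concentrations and sprayed against mustard beetle larvae. Efficacy (% larvae killed) scored after 7 days.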

[10] = tested on: bont tick nymphs (Amblyomma hebraeum); conditions: after 48 h

Cn1nc(C(F)(F)C(F)(F)F)c(C(F)(F)F)c1-n1cc(-c2ccc(Cl)c(C(=O)NCC(F)(F)F)c2)cn1 [Ic-23]
100%: efficacy (kill in %) [1] | efficacy in % ([2]; application rate 100 g/ha) | efficacy in % ([3]; application rate 100 g/ha) | efficacy (kill in %) [4] | efficacy (laying of fertile eggs) [5] | efficacy (dead or moribund ticks) ([6]; application rate 1 μg/cm^2) | efficacy (dead or moribund ticks) ([6]; application rate 5 μg/cm^2) | efficacy (laying of fertile eggs) [7] | efficacy (kill in %) [8] | efficacy in % ([9]; application rate 100 g/ha) | efficacy (dead or moribund ticks) [10]

Cn1nc(C(F)(F)C(F)(F)F)c(C(F)(F)F)c1-n1cc(-c2ccc(F)c(C(=O)NC3CC3)c2)cn1 [Ic-37]
100%: efficacy (kill in %) [1] | efficacy in % ([2]; application rate 100 g/ha) | efficacy in % ([3]; application rate 100 g/ha) | efficacy (kill in %) [4] | efficacy (laying of fertile eggs) [5] | efficacy (dead or moribund ticks) ([6]; application rate 1 μg/cm^2) | efficacy (dead or moribund ticks) ([6]; application rate 5 μg/cm^2) | efficacy (laying of fertile eggs) [7] | efficacy (kill in %) [8] | efficacy in % ([9]; application rate 100 g/ha) | efficacy (dead or moribund ticks) [10]

Cc1ncc(-c2cnn(-c3c(C(F)(F)F)c(C(F)(F)C(F)(F)F)nn3C)c2)cc1C(=O)NC1CC1 [Ic-84]
100%: efficacy (kill in %) [1] | efficacy in % ([2]; application rate 500 g/ha) | efficacy in % ([3]; application rate 500 g/ha) | efficacy (kill in %) [4] | efficacy (laying of fertile eggs) [5] | efficacy (dead or moribund ticks) ([6]; application rate 1 μg/cm^2) | efficacy (dead or moribund ticks) ([6]; application rate 5 μg/cm^2) | efficacy (laying of fertile eggs) [7] | efficacy (kill in %) [8] | efficacy in % ([9]; application rate 500 g/ha) | efficacy (dead or moribund ticks) [10]

Cn1nc(C(F)(F)C(F)(F)F)c(C(F)(F)F)c1-n1cc(-c2cc(Cl)c(Cl)c(C(=O)NC3CC3)c2)cn1 [Ic-94]
100%: efficacy (kill in %) [1] | efficacy in % ([2]; application rate 500 g/ha) | efficacy in % ([3]; application rate 500 g/ha) | efficacy (kill in %) [4] | efficacy (laying of fertile eggs) [5] | efficacy (dead or moribund ticks) ([6]; application rate 1 μg/cm^2) | efficacy (dead or moribund ticks) ([6]; application rate 5 μg/cm^2) | efficacy (laying of fertile eggs) [7] | efficacy (kill in %) [8] | efficacy in % ([9]; application rate 500 g/ha) | efficacy (dead or moribund ticks) [10]
